ChEMBL document CHEMBL2203268, “Resveratrol as a kcat type inhibitor for tyrosinase: potentiated melanogenesis inhibitor” (Bioorg Med Chem, 2012)
One block for each compound: values may come before it. The source made the active and inactive calls. The calls are words filed in the database; no cut-off is given here.

What was measured:
B16-F10 [1] = experiment: Antimelanogenic activity in mouse assessed as cellular melanin content B16F10 cells after 72 hrs by spectrophotometric analysis; type: functional, cell-based
B16-F10 [2] = experiment: Cytotoxicity against mouse B16F10 cells assessed as suppression of cell viability at 12.5 to 200 uM after 72 hrs; type: cell-based; conditions: b16-f10, 72 h
B16-F10 [3] = experiment: Cytotoxicity against mouse B16F10 cells assessed as suppression of cell viability at 400 uM after 72 hrs; type: cell-based; conditions: b16-f10, 72 h
tyrosinase = experiment: Drug metabolism assessed as oxidation of the compound at 100 uM after 60 mins by HPLC analysis in the presence of tyrosinase; type: physicochemical; conditions: read-out: Drug metabolism
[4] = molecular target: T1, Tyrosinase (Agaricus bisporus) (UniProt O42713); experiment: Activation of mushroom tyrosinase assessed as oxygen consumption using L-tyrosine substrate after 60 mins
T1 sequence (whole entry): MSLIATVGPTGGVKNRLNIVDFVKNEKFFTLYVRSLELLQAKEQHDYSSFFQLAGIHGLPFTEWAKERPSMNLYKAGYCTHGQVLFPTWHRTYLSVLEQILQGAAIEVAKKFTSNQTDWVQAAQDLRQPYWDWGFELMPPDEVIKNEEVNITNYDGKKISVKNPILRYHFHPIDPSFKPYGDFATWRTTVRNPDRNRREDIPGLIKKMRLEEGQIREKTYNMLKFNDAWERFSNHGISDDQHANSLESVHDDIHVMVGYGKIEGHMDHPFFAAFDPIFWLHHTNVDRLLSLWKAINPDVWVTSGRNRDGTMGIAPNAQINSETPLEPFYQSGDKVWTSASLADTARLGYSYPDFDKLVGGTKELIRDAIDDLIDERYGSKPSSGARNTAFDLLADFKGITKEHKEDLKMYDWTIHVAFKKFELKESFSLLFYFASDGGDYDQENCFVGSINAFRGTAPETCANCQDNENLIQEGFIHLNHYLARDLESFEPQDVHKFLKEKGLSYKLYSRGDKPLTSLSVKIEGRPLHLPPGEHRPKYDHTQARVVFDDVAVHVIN

[5] = Drug metabolism assessed as oxidation of the compound at 100 uM by HPLC analysis in the presence of tyrosinase; type: physicochemical; conditions: TDE = time-dependent effect
[6] = molecular target: T1, Tyrosinase (Agaricus bisporus); experiment: Inhibition of mushroom tyrosinase assessed as L-tyrosine oxidation at 100 uM incubated 30 mins prior to substrate addition measured after 60 mins by UV-vis spectrophotometric analysis
[7] = molecular target: T1, Tyrosinase (Agaricus bisporus); experiment: Inhibition of mushroom tyrosinase-mediated oxygen consumption at 100 uM using L-tyrosine substrate incubated 30 mins prior to substrate addition measured after 60 mins
[8] = molecular target: T1, Tyrosinase (Agaricus bisporus); experiment: Inhibition of mushroom tyrosinase-mediated L-DOPA oxidation assessed as decrease in dopachrome formation at 100 uM preincubated for 30 mins by HPLC analysis
[9] = molecular target: T1, Tyrosinase (Agaricus bisporus); experiment: Inhibition of mushroom tyrosinase assessed as L-DOPA oxidation at 100 uM incubated 30 mins prior to substrate addition measured after 60 mins by UV-vis spectrophotometric analysis
[10] = molecular target: T1, Tyrosinase (Agaricus bisporus); experiment: Inhibition of mushroom tyrosinase-mediated L-DOPA oxidation assessed as decrease in dopachrome formation at 100 uM incubated 30 mins prior to substrate addition measured after 60 mins by UV-vis spectrophotometric analysis
[11] = Drug metabolism assessed as oxidation of the compound at 100 uM after 10 mins by UV-vis spectrophotometric analysis in the presence of tyrosinase; type: physicochemical
[12] = molecular target: T1, Tyrosinase (Agaricus bisporus); experiment: Inhibition of mushroom tyrosinase-mediated oxygen consumption at 100 uM using L-DOPA substrate incubated 30 mins prior to substrate addition measured after 60 mins
[13] = molecular target: T1, Tyrosinase (Agaricus bisporus); experiment: Activation of mushroom tyrosinase assessed as dopachrome formation after 60 mins by UV-vis spectrophotometric analysis
[14] = molecular target: T1, Tyrosinase (Agaricus bisporus); experiment: Activation of mushroom tyrosinase assessed as L-DOPA oxidation at 100 uM after 30 mins by UV-vis spectrophotometric analysis
[15] = molecular target: T1, Tyrosinase (Agaricus bisporus); experiment: Inhibition of mushroom tyrosinase assessed as L-DOPA oxidation HPLC analysis
[16] = molecular target: T1, Tyrosinase (Agaricus bisporus); experiment: Inhibition of mushroom tyrosinase-mediated L-DOPA oxidation at 100 uM after 30 mins by UV-vis spectrophotometric analysis
[17] = molecular target: T1, Tyrosinase (Agaricus bisporus); experiment: Inhibition of mushroom tyrosinase-mediated oxygen consumption using L-DOPA substrate at 100 uM after 30 mins
[18] = molecular target: T1, Tyrosinase (Agaricus bisporus); experiment: Inhibition of mushroom tyrosinase-mediated L-tyrosine oxidation after 60 mins by HPLC analysis
[19] = molecular target: T1, Tyrosinase (Agaricus bisporus); experiment: Inhibition of mushroom tyrosinase-mediated L-tyrosine oxidation assessed as decrease in dopachrome formation at 100 uM after 60 mins by UV-vis spectrophotometric analysis
[20] = molecular target: T1, Tyrosinase (Agaricus bisporus); experiment: Inhibition of mushroom tyrosinase-mediated oxygen consumption using L-tyrosine substrate after 60 mins
[21] = molecular target: T1, Tyrosinase (Agaricus bisporus); experiment: Inhibition of mushroom tyrosinase-mediated L-tyrosine oxidation at 100 uM after 60 mins by HPLC analysis
[22] = molecular target: T1, Tyrosinase (Agaricus bisporus); experiment: Inhibition of mushroom tyrosinase-mediated dopachrome formation after 60 mins by UV-vis spectrophotometric analysis
B16-F10 [23] = experiment: Cytotoxicity against mouse B16F10 cells assessed as suppression of cell viability after 72 hrs; type: cell-based
[24] = Drug metabolism assessed as oxidation of the compound at 100 uM after 30 mins by HPLC analysis in the presence of tyrosinase; type: physicochemical; conditions: 0.5 h
[25] = molecular target: T1, Tyrosinase (Agaricus bisporus); experiment: Inhibition of mushroom tyrosinase-mediated L-DOPA oxidation assessed as recovery of enzymatic activity at 100 uM preincubated for 30 mins by HPLC analysis in the presence of 200 uM of L-cysteine
B16-F10 [26] = experiment: Antimelanogenic activity in mouse assessed as cellular melanin content B16F10 cells at 200 uM after 72 hrs spectrophotometric analysis; type: functional, cell-based
B16-F10 [27] = experiment: Cytotoxicity against mouse B16F10 cells assessed as suppression of cell viability at 200 uM after 72 hrs; type: cell-based; conditions: b16-f10, 72 h

Compound: Oc1cc(O)cc(/C=C\c2ccccc2)c1
Activity (B16-F10 [1]): inactive
Activity (B16-F10 [2]): Non-toxic

Compound: Oc1cc(O)cc(CCc2ccccc2)c1 [DIHYDROPINOSYLVIN]
Activity (B16-F10 [1]): inactive
Activity (B16-F10 [2]): Non-toxic

Compound: Oc1cc(O)cc(/C=C/c2ccccc2)c1 [PINOSYLVIN]
Activity (B16-F10 [3]): Toxic
Activity (B16-F10 [2]): Non-toxic

metabolised at 1 h, 100 µM (tyrosinase): 90%
Activity [4]: Dose-dependent effect
Drug metabolism [5]: tde
inhibition [6]: Active
inhibition [7]: Active
inhibition [8]: 10%
inhibition [9]: 90%
inhibition [10]: Active
Drug metabolism [11]: Active
inhibition [12]: Active
Activity [13]: Dose-dependent effect
Activity [14]: inactive
inhibition [15]: Active
inhibition [16]: inactive
inhibition [17]: inactive
inhibition [18]: Dose-dependent effect
inhibition [19]: Active
inhibition [20]: inactive
inhibition [21]: Active
inhibition [22]: inactive
Drug metabolism [24]: Active
inhibition [25]: 20%
Compound: Oc1ccc(/C=C/c2cc(O)cc(O)c2)cc1 [RESVERATROL]
Activity (B16-F10 [1]): Dose-dependent effect
Activity (B16-F10 [2]): Non-toxic
IC50 (B16-F10 [23]; Mus musculus, B16-F10, 72 h): > 200 µM
Activity (B16-F10 [23]; mouse, b16-f10, 72 h): Dose-dependent effect
Activity (B16-F10 [26]): Active
Activity (B16-F10 [27]): 10%
